Assay results from PMC7736868, “Fluorescent ligands for dopamine D2/D3 receptors” (Scientific Reports, 2020).

Assays:
secNluc-D3R [1] = molecular target: T1, secNluc-D3R (UniProt P35462+Q9GV45, A31E/A60N/A81I/F95D/I117V/K70R/L54V/L99Q/M102K/N193R/P142E/Q151K/Q38R/Q45L/V71I/Y165I); assay: Live-cell NanoBRET saturation binding, HEK293T cells
Protocol: Figure 5 NanoBRET saturation curves for the fluorescent ligands 10a-c. Saturation binding experiments were performed with live HEK293T cells expressing secNluc-D3R and the fluorescent ligands 10a, 10b and 10c, comprising a trifluorethyl-rhodamine derivative, a Cy3B and an Alexa488 fluorophore, respectively. […] Data points show mean ± SEM of one representative out of n = 5 (for 10a) or n = 4 (for 10b,c) experiments, with each condition carried out in triplicate. The netBRET signal was calculated as the difference between total BRET and the signal obtained in the absence of a fluorescent ligand.
For whole cell NanoBRET saturation assays, HEK293T cells were transfected with secNluc-D3R employing Mirus TransIT-293 (3:1 reagent to DNA ratio). After 24 h at 37 °C, 5% CO2, cells were detached using Versene and transferred to white, F-bottom 384-well plates at a density of 2,500 cells/well and incubated for another 24 h at 37 °C, 5% CO2. Cells were washed with PBS and incubated for 30 min at 37 °C with 5% FBS in DMEM without phenol red, before the fluorescent ligands (5 µL, diluted into DMEM without phenol red with 5% FBS from a 1 mM DMSO-stock) were added. […] After 1 h incubation with the ligands at 37 °C, furimazine (Promega, final dilution 1:500 to 1:2,500) was added, followed by a 5 min incubation at room temperature in the dark. BRET was measured as the ratio of acceptor fluorescence and donor luminescence employing a CLARIOstar microplate reader equipped with 475/30 nm and 535/30 or 580/30 emission filters, respectively. Total, non-specific and specific binding were analyzed employing the algorithms for one-site saturation binding implemented in PRISM6.0 or 8.0.

secNluc-D3R [2] = molecular target: T1, secNluc-D3R; assay: Membrane-based NanoBRET saturation binding; conditions: membranes from HEK293T cells expressing secNluc-D3R; KD ± SEM
Protocol: . After addition of furimazine (1:5,000, final volume 35 µL), and 5 min incubation at room temperature in the dark, BRET readings were obtained using a CLARIOstar plate reader equipped with a 475/30 nm donor together with a 535/30 nm (for 10a) or 620/30 nm (for 10b) acceptor emission filter. […]. Kinetic assays were monitored at room temperature and minimal possible cycle time of the CLARIOstar was used for each measurement. Data was fitted to one phase association and dissociation equations in PRISM6.0 to determine the kinetic constants. In competition binding experiments, membranes were incubated with serial dilutions of unlabeled ligands and the fluorescent ligand 10a (10 or 100 nM) for 90 min at 37 °C. Addition of furimazine (1:5,000) and BRET measurements were carried out as described above. Data analysis was performed using the one site—fit Ki equation in PRISM6.0 to determine the inhibition constants (Ki) of the unlabeled ligands.
Supplementary Fig. 4. NanoBRET saturation curves obtained with ligands 10a,b and membranes from HEK293T expressing secNluc- D3R. […]
calculated as the difference between total and non- specific binding . BRET was measured after 90 min incubation at 37 °C and represents mean ± SD of an individual representative out of 3 – 4 independent experiments, with each condition in triplicate. […]

[3] = read-out: KD NanoBRET saturation; live HEK293T cells expressing secNluc-D3R; KD ± SEM

T1 sequence (Q9GV45+P35462 fused with the stated changes): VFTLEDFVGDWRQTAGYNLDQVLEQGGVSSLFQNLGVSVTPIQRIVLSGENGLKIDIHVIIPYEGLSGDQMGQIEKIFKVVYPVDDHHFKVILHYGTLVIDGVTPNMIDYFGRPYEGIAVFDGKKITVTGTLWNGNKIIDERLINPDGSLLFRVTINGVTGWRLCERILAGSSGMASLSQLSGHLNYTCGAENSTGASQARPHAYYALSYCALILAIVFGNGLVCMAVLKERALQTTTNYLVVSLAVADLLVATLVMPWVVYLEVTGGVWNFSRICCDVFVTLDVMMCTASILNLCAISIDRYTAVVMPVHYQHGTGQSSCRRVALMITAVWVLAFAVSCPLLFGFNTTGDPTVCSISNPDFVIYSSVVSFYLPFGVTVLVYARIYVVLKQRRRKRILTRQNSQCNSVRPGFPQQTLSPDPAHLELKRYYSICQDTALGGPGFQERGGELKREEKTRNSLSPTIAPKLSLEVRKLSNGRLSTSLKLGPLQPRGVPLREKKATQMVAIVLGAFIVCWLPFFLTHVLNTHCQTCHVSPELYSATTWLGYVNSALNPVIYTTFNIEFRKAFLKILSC

Row | Compound | Kd (secNluc-D3R [1]; live HEK293T cells expressing secNluc-D3R; KD ± SEM; read-out: KD NanoBRET saturation) | Kd (secNluc-D3R [2]) | Kd (secNluc-D3R [1]; [3])
1 | CCCN(CCCCc1cn(-c2ccc(CNC(=O)c3ccc(-c4c5ccc(=NCC(F)(F)F)cc-5oc5cc(NCC(F)(F)F)ccc45)c(C(=O)O)c3)cc2)nn1)C1Cc2ccccc2C1 [10a] | 0.72 ± 0.07 nM | 0.9 ± 0.14 nM | 
2 | CCCN(CCCCc1cn(-c2ccc(C(=O)NCCCNC(=O)Cc3ccc4c(c3)C(C)(C)C3=C5C=C6C7=[N+](CCC6OC5CCN34)c3ccc(S(=O)(=O)[O-])cc3C7(C)C)cc2)nn1)C1Cc2ccccc2C1 (centres unmarked) [10b] |  | 11.3 ± 1.6 nM | 12.1 ± 1.7 nM
3 | CCCN(CCCCc1cn(-c2ccc(C(=O)NCCCNC(=O)c3ccc(-c4c5ccc(=N)c(S(=O)(=O)O)c-5oc5c(S(=O)(=O)O)c(N)ccc45)c(C(=O)O)c3)cc2)nn1)C1Cc2ccccc2C1 [10c] |  |  | 0.72 ± 0.08 nM
